Results published in US10538555B2, “Macrocyclic inhibitors of the PD-1/PD-L1 and CD80(B7-1)/PD-L1 protein/protein interactions” (BRISTOL-MYERS SQUIBB COMPANY, priority 2014, dated 2020).
Where a SMILES comes first, the peptide text is derived from it. Bridges are numbered along the chain shown (N, C = ends). [ ]: non-standard residue; d: D form. ξ: configuration not given here. Phe(3,4-F2) = N[C@@H](Cc1ccc(F)c(F)c1)C(=O)O; Phe(4-F) = N[C@@H](Cc1ccc(F)cc1)C(=O)O; NMeF = CN[C@@H](Cc1ccccc1)C(=O)O; dNMeF = CN[C@H](Cc1ccccc1)C(=O)O; hIle(4ξ) = CCC(C)C[C@H](N)C(=O)O; dHyp = O=C(O)[C@H]1C[C@H](O)CN1; NMehSer = CN[C@@H](CCO)C(=O)O; NMeNle = CCCC[C@H](NC)C(=O)O; NMeV = CN[C@H](C(=O)O)C(C)C; dPip = O=C(O)[C@H]1CCCCN1; Orn = NCCC[C@H](N)C(=O)O

target: T1, Human PD-L1/PD-1 (Homo sapiens, UniProt Q9NZQ7); experiment: HTRF Human PD-L1/PD-1 binding assay (PD-1-Ig/PD-L1-His); details: PD-L1-His 10 nM, PD-1-Ig 20 nM; class symbol; read-out: HTRF Human PD-L1/PD-1 Binding Assay IC50 Range
T1 construct: TVMV protease cleavage site (C); made in house; host or cells: HEK293T cells
T1 sequence (Q9NZQ7 with tags, fused parts or gaps): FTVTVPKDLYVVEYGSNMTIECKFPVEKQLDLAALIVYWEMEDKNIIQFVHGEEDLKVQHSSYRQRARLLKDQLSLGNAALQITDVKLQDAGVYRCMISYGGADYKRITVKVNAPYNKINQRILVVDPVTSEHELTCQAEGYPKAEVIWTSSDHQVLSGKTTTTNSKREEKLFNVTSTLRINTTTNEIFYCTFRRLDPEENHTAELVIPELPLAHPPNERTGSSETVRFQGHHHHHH
In short: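 Step 1: compound with PD-L1-His (10 nM final), 15 min. Step 2: PD-1-Ig (20 nM final), 15 min. Step 3: Eu-cryptate anti-Ig (1 nM) plus APC anti-His (20 nM), 30 min equilibration. Signal taken as 665 nm/620 nm ratio.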

Row | SMILES | IC50 [nM]
1 | COCC[C@H]1C(=O)N2C[C@@H](O)C[C@@H]2C(=O)N[C@@H](CC(=O)O)C(=O)N[C@@H](C(C)C)C(=O)N(C)[C@@H](Cc2ccccc2)C(=O)N[C@@H](Cc2ccc(OC)cc2)C(=O)N2C[C@@H](O)C[C@@H]2C(=O)N[C@@H](Cc2c[nH]c3ccccc23)C(=O)N[C@@H](Cc2ccc(O)cc2)C(=O)N[C@@H](CC(C)C)C(=O)N[C@H](C(=O)NCC(N)=O)CSCC(=O)N[C@@H](Cc2ccc(F)c(F)c2)C(=O)N(C)[C@@H](Cc2ccccc2)C(=O)N1C [Example 9235] ({CH2CO}-[Phe(3,4-F2)][NMeF][NMehSer](Me)[dHyp]DV[NMeF]Y(Me)[dHyp]WYLCG-NH2; thioether N-13) | 1 to 9.9
2 | COCC[C@H]1C(=O)N2C[C@@H](O)C[C@@H]2C(=O)N[C@@H](CC(=O)O)C(=O)N[C@@H](C(C)C)C(=O)N(C)[C@H](Cc2ccccc2)C(=O)N[C@@H](Cc2ccc(OC)cc2)C(=O)N2C[C@@H](O)C[C@@H]2C(=O)N[C@@H](Cc2c[nH]c3ccccc23)C(=O)N[C@@H](Cc2ccc(O)cc2)C(=O)N[C@@H](CC(C)C)C(=O)N[C@H](C(=O)NCC(N)=O)CSCC(=O)N[C@@H](Cc2ccc(F)c(F)c2)C(=O)N(C)[C@@H](Cc2ccccc2)C(=O)N1C [Example 9236] ({CH2CO}-[Phe(3,4-F2)][NMeF][NMehSer](Me)[dHyp]DV[dNMeF]Y(Me)[dHyp]WYLCG-NH2; thioether N-13) | 1 to 9.9
3 | CCCC[C@H]1C(=O)N2CCC[C@@H]2C(=O)N[C@@H](CC(=O)O)C(=O)N[C@@H](C(C)C)C(=O)N(C)[C@@H](C(C)C)C(=O)N[C@@H](Cc2ccc(O)cc2)C(=O)N2CCC[C@@H]2C(=O)N[C@@H](Cc2c[nH]c3ccccc23)C(=O)N[C@@H](Cc2ccc(O)cc2)C(=O)N[C@@H](CC(C)C)C(=O)N[C@H](C(=O)NCC(N)=O)CSCC(=O)N[C@@H](Cc2ccc(F)cc2)C(=O)N(C)[C@@H](Cc2ccccc2)C(=O)N1C [Example 9241] ({CH2CO}-[Phe(4-F)][NMeF][NMeNle][dP]DV[NMeV]Y[dP]WYLCG-NH2; thioether N-13) | 1000 to 10000
4 | CCCC[C@H]1C(=O)N2CCC[C@@H]2C(=O)N[C@@H](CC(=O)O)C(=O)N[C@@H](C(C)C)C(=O)N(C)[C@@H](C(C)C)C(=O)N[C@@H](Cc2ccc(O)cc2)C(=O)N2CCCC[C@@H]2C(=O)N[C@@H](Cc2c[nH]c3ccccc23)C(=O)N[C@@H](Cc2ccc(O)cc2)C(=O)N[C@@H](CC(C)CC)C(=O)N[C@H](C(=O)NCC(N)=O)CSCC(=O)N[C@@H](Cc2ccc(F)cc2)C(=O)N(C)[C@@H](Cc2ccccc2)C(=O)N1C (some centres unmarked) [Example 9242] ({CH2CO}-[Phe(4-F)][NMeF][NMeNle][dP]DV[NMeV]Y[dPip]WY[hIle(4ξ)]CG-NH2; thioether N-13) | 1000 to 10000
5 | CCCC[C@H]1C(=O)N2CCC[C@@H]2C(=O)N[C@@H](CC(=O)O)C(=O)N[C@@H](C(C)C)C(=O)N(C)[C@@H](C(C)C)C(=O)N[C@@H](Cc2ccc(O)cc2)C(=O)N2CCC[C@@H]2C(=O)N[C@@H](Cc2c[nH]c3ccccc23)C(=O)N[C@@H](Cc2ccc(O)cc2)C(=O)N[C@@H](CCCN)C(=O)N[C@H](C(=O)NCC(N)=O)CSCC(=O)N[C@@H](Cc2ccc(F)cc2)C(=O)N(C)[C@@H](Cc2ccccc2)C(=O)N1C [Example 9243] ({CH2CO}-[Phe(4-F)][NMeF][NMeNle][dP]DV[NMeV]Y[dP]WY[Orn]CG-NH2; thioether N-13) | 1000 to 10000
6 | CCCC[C@H]1C(=O)N2CCC[C@@H]2C(=O)N[C@@H](CC(=O)O)C(=O)N[C@@H](C(C)C)C(=O)N(C)[C@@H](C(C)C)C(=O)N[C@@H](Cc2ccc(O)cc2)C(=O)N2CCCC[C@@H]2C(=O)N[C@@H](Cc2c[nH]c3ccccc23)C(=O)N[C@@H](Cc2ccc(O)cc2)C(=O)N[C@@H](CCCN)C(=O)N[C@H](C(=O)NCC(N)=O)CSCC(=O)N[C@@H](Cc2ccc(F)cc2)C(=O)N(C)[C@@H](Cc2ccccc2)C(=O)N1C [Example 9244] ({CH2CO}-[Phe(4-F)][NMeF][NMeNle][dP]DV[NMeV]Y[dPip]WY[Orn]CG-NH2; thioether N-13) | 1000 to 10000
7 | CCCC[C@H]1C(=O)N2CCC[C@@H]2C(=O)N[C@@H](CC(=O)O)C(=O)N[C@@H](C(C)C)C(=O)N(C)[C@@H](C(C)C)C(=O)N[C@@H](CCC(N)=O)C(=O)N2CCC[C@@H]2C(=O)N[C@@H](Cc2c[nH]c3ccccc23)C(=O)N[C@@H](Cc2ccc(O)cc2)C(=O)N[C@@H](CC(C)C)C(=O)N[C@H](C(=O)NCC(N)=O)CSCC(=O)N[C@@H](Cc2ccc(F)cc2)C(=O)N(C)[C@@H](Cc2ccccc2)C(=O)N1C [Example 9245] ({CH2CO}-[Phe(4-F)][NMeF][NMeNle][dP]DV[NMeV]Q[dP]WYLCG-NH2; thioether N-13) | 1000 to 10000

Continued, values first:

Row | IC50 [nM] | SMILES
8 | 1 to 9.9 | COCC[C@H]1C(=O)N2C[C@@H](O)C[C@@H]2C(=O)N[C@@H](CC(=O)O)C(=O)N[C@@H](C(C)C)C(=O)N(C)[C@@H](Cc2ccccc2)C(=O)N[C@@H](Cc2ccc(O)cc2)C(=O)N2C[C@@H](O)C[C@@H]2C(=O)N[C@@H](Cc2c[nH]c3ccccc23)C(=O)N[C@@H](Cc2ccc(O)cc2)C(=O)N[C@@H](CCCN)C(=O)N[C@H](C(=O)NCC(N)=O)CSCC(=O)N[C@@H](Cc2ccc(F)c(F)c2)C(=O)N(C)[C@@H](Cc2ccccc2)C(=O)N1C [Example 9237] ({CH2CO}-[Phe(3,4-F2)][NMeF][NMehSer](Me)[dHyp]DV[NMeF]Y[dHyp]WY[Orn]CG-NH2; thioether N-13)
9 | 1 to 9.9 | COCC[C@H]1C(=O)N2C[C@@H](O)C[C@@H]2C(=O)N[C@@H](CC(=O)O)C(=O)N[C@@H](C(C)C)C(=O)N(C)[C@H](Cc2ccccc2)C(=O)N[C@@H](Cc2ccc(O)cc2)C(=O)N2C[C@@H](O)C[C@@H]2C(=O)N[C@@H](Cc2c[nH]c3ccccc23)C(=O)N[C@@H](Cc2ccc(O)cc2)C(=O)N[C@@H](CCCN)C(=O)N[C@H](C(=O)NCC(N)=O)CSCC(=O)N[C@@H](Cc2ccc(F)c(F)c2)C(=O)N(C)[C@@H](Cc2ccccc2)C(=O)N1C [Example 9238] ({CH2CO}-[Phe(3,4-F2)][NMeF][NMehSer](Me)[dHyp]DV[dNMeF]Y[dHyp]WY[Orn]CG-NH2; thioether N-13)
10 | 1 to 9.9 | COCC[C@H]1C(=O)N2C[C@@H](O)C[C@@H]2C(=O)N[C@@H](CC(=O)O)C(=O)N[C@@H](C(C)C)C(=O)N(C)[C@H](Cc2ccccc2)C(=O)N[C@@H](Cc2ccc(OC)cc2)C(=O)N2C[C@@H](O)C[C@@H]2C(=O)N[C@@H](Cc2c[nH]c3ccccc23)C(=O)N[C@@H](Cc2ccc(O)cc2)C(=O)N[C@@H](CCCN)C(=O)N[C@H](C(=O)NCC(N)=O)CSCC(=O)N[C@@H](Cc2ccc(F)c(F)c2)C(=O)N(C)[C@@H](Cc2ccccc2)C(=O)N1C [Example 9240] ({CH2CO}-[Phe(3,4-F2)][NMeF][NMehSer](Me)[dHyp]DV[dNMeF]Y(Me)[dHyp]WY[Orn]CG-NH2; thioether N-13)

same assay, conditions: PD-L1-His 10 nM, PD-1-Ig 20 nM; read-out: HTRF Human PD-L1/PD-1 Binding Assay IC50

Row | IC50 [nM] | SMILES
11 | 3.8 | COCC[C@H]1C(=O)N2C[C@@H](O)C[C@@H]2C(=O)N[C@@H](CC(=O)O)C(=O)N[C@@H](C(C)C)C(=O)N(C)[C@@H](Cc2ccccc2)C(=O)N[C@@H](Cc2ccc(OC)cc2)C(=O)N2C[C@@H](O)C[C@@H]2C(=O)N[C@@H](Cc2c[nH]c3ccccc23)C(=O)N[C@@H](Cc2ccc(O)cc2)C(=O)N[C@@H](CCCN)C(=O)N[C@H](C(=O)NCC(N)=O)CSCC(=O)N[C@@H](Cc2ccc(F)c(F)c2)C(=O)N(C)[C@@H](Cc2ccccc2)C(=O)N1C [Example 9239] ({CH2CO}-[Phe(3,4-F2)][NMeF][NMehSer](Me)[dHyp]DV[NMeF]Y(Me)[dHyp]WY[Orn]CG-NH2; thioether N-13)
